According to patent EP4613730A1, “LIPIDIC ALKYNYLCARBINOLS WITH ANTI-BACTERIAL AND ANTI-TUBERCULOSIS ACTIVITY” (priority 2024, dated 2025):
≈ marks a conversion by molar mass, not a printed value. Read-outs that look alike come from different tables or passages of the source.

How the values were obtained:
Assay type in all cases: cell-based
[1] = Cytotoxicity evaluation on HCT-116 cell line (SRB); settings: human, HCT-116 cells, 72 hours treatment, read-out: Anti-HCT116 CC50
Description: (§1) The biological activity of the compounds of the present invention were evaluated. The activity against mycobacteria (Mtb) was assessed by minimum inhibitory concentration values (MIC, µM) determination. The selectivity index (SI) is defined as: SI = (CC50)/(MIC) [formula] wherein CC50 refers to the half maximal cytotoxic concentration of compounds towards particular eukaryotic cells, either for HCT116 cells and/or VERO cells; MIC refers to the minimum inhibitory concentration of the compounds towards mycobacteria.
Human HCT-116 colon cancer cells were seeded in 96-well plates (2500 cells/well) 24 hours before being treated for 72 hours with the tested compounds. Cells were grown and treated in DMEM 10% FBS. For each compound, 11 concentrations, corresponding to twofold serial dilutions from the maximum concentration, were evaluated, with each concentration tested in duplicate. DMSO was set at 0.5% final concentration in each well, including in the untreated conditions. At the end of the treatment, cells were fixed 1 hour at 4°C by addition of cold 10 % trichloroacetic acid to a final 3.33 % concentration, then washed 4 times with water. The plates were dried and the cells stained for 30 minutes with 0.057 % (wt/vol) Sulforhodamine B (SRB) in 1% acetic acid, then washed 4 times with 1% acetic acid and dried. The dye was resuspended by a 1 h 30 incubation in 200 µL of 10 mM Tris-base and the absorbance at 490 nm measured with a plate reader (µquant, Bio-tek). For normalization, the background value was subtracted to each value, the duplicates averaged and the untreated condition set to 100% cell viability. CC50 were computed from at least three independent experiments using the GraphPad Prism software using a non-linear regression to a four-parameter logistic curve (log[inhibitor] vs response; variable slope).

[2] = test system: M. abscessus; assay: Antibacterial activity MIC, M. abscessus; settings: Mycobacteroides abscessus
[3] = Cytotoxicity evaluation on Vero cell line (MTT); settings: Vero cells, read-out: Anti-VERO CC50
Description: as §1
Cytotoxicity evaluation of the tested molecules by MTT assay was performed on the Vero cell line. Briefly, cells (5.10^4 cells/mL) in 100 µL of complete medium [MEM supplemented with 10% fetal calf serum (FCS), 2 mM L-glutamine and antibiotics (100U/mL penicillin and 100 µg/mL streptomycin)] were seeded into each well of 96-well plates and incubated at 37 °C in a humidified 5% CO2 with 95% air atmosphere. After a 24 h incubation, 100 µL of medium with various product concentrations and appropriate controls were added and the plates were incubated for 72 h at 37 °C. Each plate-well was then microscope-examined for detecting possible precipitate formation before the medium was aspirated from the wells. 100 µL of MTT solution (0.5 mg/mL in complete MEM) were then added to each well. Cells were incubated for 1 h at 37 °C and the MTT solution was then removed, and DMSO (100 µL/well) was added to dissolve the resulting formazan crystals. Plates were shaken vigorously (300 rpm) for 5 min. The absorbance was measured at 570 nm with a microplate spectrophotometer (BIOTEK Eon). DMSO was used as blank and SDS as positive control. CC50 were calculated by non-linear regression analysis processed on dose-response curves, using TableCurve 2D V5 software.

[4] = test system: Mycobacterium tuberculosis strain H37Rv; assay: Mycobacterial growth inhibition assay (colorimetric MTT micro assay, MIC)
[5] = test system: M. kansasii; assay: Antibacterial activity MIC, M. kansasii; settings: Mycobacterium kansasii
[6] = test system: M. smegmatis; assay: Antibacterial activity MIC, M. smegmatis; settings: Mycolicibacterium smegmatis
[7] = test system: E. coli; assay: Antibacterial activity MIC, E. coli; settings: Escherichia coli
[8] = test system: C. glutamicum; assay: Antibacterial activity MIC, C. glutamicum; settings: Corynebacterium glutamicum
[9] = M. tuberculosis (Table 4), read-out: Antibacterial activity MIC M. tuberculosis
[10] = M. tuberculosis H37Rv, 7H9 broth, 6 days incubation then MTT 24 h, read-out: Anti-Mtb MIC
[11] = read-out: Antibacterial activity MIC M. tuberculosis

SMILES | CC50 at 72 h ([1]; HCT-116 colon cancer cells) [µM] | CC50 at 72 h ([3]; African green monkey) [µM] | MIC [4, 10] [µM] | also measured
CCCCCCCCCCCC(O)C#CCO (racemic) [Compound 1, Pentadec-2-yne-1,4-diol] | 60 | 89 | 1.25 (≈ 0.3 µg/mL) | MIC [2]: 2.5 µM (≈ 0.601 µg/mL); MIC [4, 9]: 1.25 µM (≈ 0.3 µg/mL)
CCCCCCCCCCC[C@@H](O)C#CCO [(R)-1, (R)-Pentadec-2-yne-1,4-diol] | – | – | 1.25 (≈ 0.3 µg/mL) | –
C=C=C[C@@H](O)C#CCCCCCCCCCCCC [(R)-19] | – | – | – | MIC [5]: 5 µM (≈ 1.31 µg/mL); MIC [6]: 10 µM (≈ 2.62 µg/mL); MIC [7]: > 10 µM; MIC [4, 11]: 2.5 µM (≈ 0.656 µg/mL); MIC [8]: > 10 µM
CCCCCCCCCCC[C@@H](O)C#C[C@H](O)CC [(R,R)-6, (3R,6R)-heptadec-4-yne-3,6-diol] | – | – | 2.5 (≈ 0.671 µg/mL) | –
CCCCCCCCCCC[C@H](O)C#C[C@H](O)CC [(R,S)-6, (3R,6S)-heptadec-4-yne-3,6-diol] | – | – | 2.5 (≈ 0.671 µg/mL) | –
CCCCCCCCCCC[C@H](O)C#CCO [(S)-1, (S)-Pentadec-2-yne-1,4-diol] | – | – | 1.25 (≈ 0.3 µg/mL) | –
C=C=C[C@H](O)C#CCCCCCCCCCCCC [(S)-19] | – | – | – | MIC [5]: 2.5 µM (≈ 0.656 µg/mL); MIC [6]: 10 µM (≈ 2.62 µg/mL); MIC [7]: > 10 µM; MIC [4, 11]: 2.5 µM (≈ 0.656 µg/mL); MIC [8]: > 10 µM
C#C[C@H](O)C#CCCCCCCCCCCCC [(S)-20] | – | – | – | MIC [5]: 1.2 µM (≈ 0.298 µg/mL); MIC [6]: 2.5 µM (≈ 0.621 µg/mL); MIC [7]: > 10 µM; MIC [4, 11]: 1.2 µM (≈ 0.298 µg/mL); MIC [8]: 10 µM (≈ 2.48 µg/mL)
CCCCCCCCCCC[C@@H](O)C#C[C@@H](O)CC [(S,R)-6, (3S,6R)-heptadec-4-yne-3,6-diol] | – | – | 2.5 (≈ 0.671 µg/mL) | –
CCCCCCCCCCC[C@H](O)C#C[C@@H](O)CC [(S,S)-6, (3S,6S)-heptadec-4-yne-3,6-diol] | – | – | 2.5 (≈ 0.671 µg/mL) | –
CCCCCCCCCCCCC#CCO [Comparative example A, reference compound] | – | – | 5 (≈ 1.12 µg/mL) | CC50 at 72 h [1]: 120 µM; MIC [2]: 20 µM (≈ 4.49 µg/mL); CC50 at 72 h ([3]; monkey): 187 µM; MIC [4, 9]: 5 µM (≈ 1.12 µg/mL)
C=CC(O)C#CC(O)CCCCCCCCCCC (centres unmarked) [Compound 2, Heptadec-1-en-4-yne-3,6-diol] | 2 | 7.6 | – | MIC ([4]; read-out: Anti-Mtb MIC): 1.25 µM (≈ 0.333 µg/mL)
C=C=CC(O)C#CC(O)CCCCCCCCCCC (centres unmarked) [Compound 3, Octadeca-1,2-dien-5-yne-4,7-diol] | 9 | 8 | – | MIC ([4]; read-out: Anti-Mtb MIC): 2.5 µM (≈ 0.696 µg/mL)
C#CC(O)C#CC(O)CCCCCCCCCCC (centres unmarked) [Compound 4, Heptadeca-1,4-diyne-3,6-diol] | 4 | 2.5 | – | MIC ([4]; read-out: Anti-Mtb MIC): 0.3 µM (≈ 0.0793 µg/mL)
CCCCCCCCCCCC(O)C#CC(O)c1ccccc1 (centres unmarked) [Compound 5, 1-Phenylpentadec-2-yne-1,4-diol] | 50 | 46.5 | 1.25 (≈ 0.396 µg/mL) | –
CCCCCCCCCCCC(O)C#CC(O)CC (centres unmarked) [Compound 6, Heptadec-4-yne-3,6-diol] | 40 | 43.2 | 2.5 (≈ 0.671 µg/mL) | MIC [2]: 10 µM (≈ 2.68 µg/mL); MIC [4, 9]: 2.5 µM (≈ 0.671 µg/mL)
CCCCCCCCCCCC(O)C#CC(O)C1CC1 (centres unmarked) [Compound 7, 1-Cyclopropylpentadec-2-yne-1,4-diol] | 50 | 43.9 | 0.3 (≈ 0.0841 µg/mL) | –
CCCCCCCCCCCC(O)C#CC(O)C(C)(C)C (centres unmarked) [Compound 8, 2,2-Dimethylheptadec-4-yne-3,6-diol] | 20 | – | 5 (≈ 1.48 µg/mL) | –
CCCCCCCCCCCC(O)C#CC(O)C(CC)CC (centres unmarked) [Compound 9, 3-Ethyloctadec-5-yne-4,7-diol] | 20 | – | 5 (≈ 1.55 µg/mL) | –

SMILES | CC50 at 72 h ([1]; HCT-116 colon cancer cells) [µM] | CC50 at 72 h ([3]; African green monkey) [µM] | MIC [4, 10] [µM] | also measured
CCCCCCCCCCCC(O)C#CC(O)C1CCCC1 (centres unmarked) [Compound 10, 1-Cyclopentylpentadec-2-yne-1,4-diol] | 20 | – | 5 (≈ 1.54 µg/mL) | –
CCCCCCCCCCCC(O)C#CC(O)C1CCCCC1 (centres unmarked) [Compound 11, 1-Cyclohexylpentadec-2-yne-1,4-diol] | 50 | – | 5 (≈ 1.61 µg/mL) | –
C=CC(O)C#CCC(O)CCCCCCCCCC (centres unmarked) [Compound 12, Heptadec-1-en-4-yne-3,7-diol] | 2 | 12.5 | – | MIC ([4]; read-out: Anti-Mtb MIC): 1.25 µM (≈ 0.333 µg/mL)
C=C=CC(O)C#CCC(O)CCCCCCCCCC (centres unmarked) [Compound 13, Octadeca-1,2-dien-5-yne-4,8-diol] | 12 | – | – | MIC ([4]; read-out: Anti-Mtb MIC): 0.6 µM (≈ 0.167 µg/mL)
C#CC(O)C#CCC(O)CCCCCCCCCC (centres unmarked) [Compound 14, Heptadeca-1,4-diyne-3,7-diol] | 2 | 174 | – | MIC ([4]; read-out: Anti-Mtb MIC): 0.6 µM (≈ 0.159 µg/mL)
CCCCCCCCCCC(O)CC#CC(O)c1ccccc1 (centres unmarked) [Compound 15, 1-Phenylpentadec-2-yne-1,5-diol] | 41 | 75 | 2.5 (≈ 0.791 µg/mL) | –
CCCCCCCCCCC(O)CC#CC(O)CC (centres unmarked) [Compound 16, Heptadec-4-yne-3,7-diol] | 51 | 75 | 5 (≈ 1.34 µg/mL) | –
CCCCCCCCCCC(O)CC#CC(O)C1CC1 (centres unmarked) [Compound 17, 1-Cyclopropylpentadec-2-yne-1,5-diol] | 40 | 44.5 | 0.6 (≈ 0.168 µg/mL) | –
C=CC(O)C#CCCCCCCCCCCCC (centres unmarked) [Compound 18, Heptadec-1-en-4-yn-3-ol] | 0.2 | 1 | – | MIC ([4]; read-out: Anti-Mtb MIC): 2.5 µM (≈ 0.626 µg/mL)
C=C=CC(O)C#CCCCCCCCCCCCC (centres unmarked) [Compound 19, Octadeca-1,2-dien-5-yn-4-ol] | 2.7 | – | 2.5 (≈ 0.656 µg/mL) | –
C#CC(O)C#CCCCCCCCCCCCC (centres unmarked) [Compound 20, Heptadeca-1,4-diyn-3-ol] | 0.1 | 0.8 | – | MIC ([4]; read-out: Anti-Mtb MIC): 1.2 µM (≈ 0.298 µg/mL)
CCCCCCCCCCCCC#CC(O)c1ccccc1 (centres unmarked) [Compound 21, 1-Phenylpentadec-2-yn-1-ol] | 50 | 58.7 | 1.2 (≈ 0.361 µg/mL) | –
CCCCCCCCCCCCC#CC(O)CC (centres unmarked) [Compound 22, Heptadec-4-yn-3-ol] | 12 | > 50 | – | MIC [2]: > 20 µM; MIC [4, 9]: 2.5 µM (≈ 0.631 µg/mL)
CCCCCCCCCCCCC#CC(O)C1CC1 (centres unmarked) [Compound 23, 1-Cyclopropylpentadec-2-yn-1-ol] | 60 | 158 | > 10 | –
CCCCCCCCCCCCC#CC(O)C(C)(C)C (centres unmarked) [Compound 24, 2,2-Dimethylheptadec-4-yn-3-ol] | 60 | – | > 10 | –
CCCCCCCCCCCCC#CC(O)C(CC)CC (centres unmarked) [Compound 25, 3-Ethyloctadec-5-yn-4-ol] | 125 | – | > 10 | –
CCCCCCCCCCCCC#CC(O)C1CCCC1 (centres unmarked) [Compound 26, 1-Cyclopentylpentadec-2-yn-1-ol] | 100 | – | > 10 | –
CCCCCCCCCCCCC#CC(O)C1CCCCC1 (centres unmarked) [Compound 27, 1-Cyclohexylpentadec-2-yn-1-ol] | 60 | – | 10 (≈ 3.07 µg/mL) | –
C=C=CC(O)C#CCCCCCCCCC (centres unmarked) [Compound 28] | – | – | – | MIC [5]: 10 µM (≈ 2.2 µg/mL); MIC [6]: > 10 µM; MIC [7]: > 10 µM; MIC [4, 11]: 5 µM (≈ 1.1 µg/mL); MIC [8]: > 10 µM
